Data set [1] deals with T1, CYP2E1 (Homo sapiens, UniProt P05181). In words: in vitro. Conditions: human liver microsomes, pH 7.4, probe chlorzoxazone (6-hydroxylation). Background: Microsomes from liver hold many membrane-bound enzymes, among them those of drug oxidation.
Experimental: (§2) Microsomes prepared from human liver were used to extract cytochrome P450 2E1 (CYP2E1) and CYP2E1 inhibitors were screened from 39 Chinese medicine guiding drugs and 10 excipients. Chlorzoxazone hydroxylation is a reaction catalyzed primarily by CYP2E1 in liver. The extracted human liver microsomal cytochrome P450 2E1 (CYP2E1) was mixed with its substrate, Chlorzoxazone, and test sample was then added Inhibition of CYP2E1 activity was calculated by measuring CYP2E1 standard metabolite, 6-OH-CZX (6-Hydroxy-Chlorzoxazone), and compared with control 6-OH-CZX.
(§3) After incubation, 16 mM Chlorzoxazone and test samples were added to experimental groups; methanol:sterilized water at 1:1 ratio was added to control groups and DDTC was added to positive control groups,
(§4) Finally, cofactor 1 mM NADP^+, 10 mM G6P and 2 IU G6PD were added and reaction mixtures were transferred to pre-incubation 37° C. water bath for 1 mM and activity was measured after 30 min of reaction
(§5) At the end of reaction, 500 μl acetonitrile was added to stop the reaction followed by 5 g/mL 4-hydroxy-tobutamide after 1 mM incubation. The mixture was then centrifuged and 20 L of supernatant was diluted ten times with methanol/sterilized water and 5 L was used for LC/MS/MS analysis. […] The inhibition of CYP2E1 was then calculated by the following equation:
Data set [2] has as its target T1, CYP2E1. In words: Human liver microsomal CYP2E1, chlorzoxazone 6-hydroxylation.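 As to all read-outs here: chlorzoxazone added as substrate, 6-hydroxychlorzoxazone formation quantified by LC/MS/MS after 30 min at 37 °C with NADP+ regenerating system, compared against solvent control without test sample.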 The note with it: human; for inhibition at 30 min, 0.08 % (w/v) / inhibition at 30 min, 16.5 µM / inhibition at 30 min, 33 µM / inhibition at 30 min, 66 µM: human liver microsomes, pH 7.4, probe Chlorzoxazone; for inhibition at 30 min, 0.167 % (w/v): microsomes, pH 7.4.
Experimental: as §2, §3, §4, §5
The test system of data set [3] is Male SD (Sprague-Dawley) rats. In words: Rat study of INH combined with DSF and/or BNPP (AST, ALT, histology, 8-iso-PGF2α, GSP, GEC). The format is in vivo. As for the experimental part:
The body weight of the rats was monitored throughout the experiment. Rats were anesthetized with sodium pentobarbital intraperitoneally (i.p.) at the dose of 50 mg/kg and Galactose was injected intravenously through a polyethylene catheter positioned in internal jugular vein. The catheter was positioned by cut-down technique and its end was embedded under the skin behind the neck. After the surgery, the rats were fasted overnight during the recovery period (about 16 hours) with unrestricted water access.
Animals were randomized into one of five groups, each involving three treatments. The first treatment involved either a BNPP injection of 25 mg/kg or a BNPP vehicle (VEH1) injection (saline). […] The second treatment involved injections of either 100 mg/kg DSF or DSF vehicle (VEH2, corn oil). DSF was dissolved in corn oil and i.p. injected at a volume of […]. The third treatment involved injections of INH (25 mg/kg) or INH vehicle (VEH3, saline). INH was dissolved in saline (0.9% NaCl), and i.p. injected at a volume of […]. The first treatment (BNPP or VEH1) was administered 30 minutes before the third treatment (INH or VEH3), and the second treatment (DSF or VEH2) was administered 15 minutes before the third treatment (INH or VEH3).
Galactose elimination capacity (GEC) test was performed 16 hours […] at the end of 21 days-treatment to measure the liver function.
After 21 days treatment, the rats were sacrificed with ether and blood samples collected in test tubes containing EDTA by dorsal aorta extract. The blood samples were centrifuged at 13,000 g for 15 min at 4° C. and plasma was aliquot into eppendorf tubes and stored at −80° C.
(§1) After the rats were sacrificed, the livers were subjected to histology analysis.
All isomers of PGF2α were dissolved or diluted in adequate amount of ethanol and after aliquot, stored at −70° C. As an internal standard, 10 ng of 8-iso-PGF2α-d4 was mixed with 0.5 ml of plasma in a glass tube and was then purified by a C18 Solid-Phase Extraction column (J. T. Baker, MA, USA). Sample eluants were evaporated under a stream of nitrogen and re-dissolved in 50 μl acetonitrile:water (15:85 v/v) solution followed by vortex for 30 seconds and 10 μl extract was further analyzed with a LC/MS/MS system.
Shimadzu system control and one Shimadzu autosampler (Shimadzu, Japan). HPLC purification of the extract by C18 column (mesh size 5-μm, diameter 50×2.1 mm) using 2 mM ammonium acetate/acetonitrile, ACN gradient as mobile phase (t=0 mM, 15% ACN; t=6 mM, 70% ACN; t=7 mM, 90% ACN; t=8 mM, 90% ACN; t=8.5 min, 15% ACN). […] Such HPLC system was connected to a triple stage quadrupole mass spectrometer (API3000, Applied Biosystem, Foster City, Calif., USA) and is equipped with a Turbo Ion Spray ionization source, and uses negative electrospray for ionization. Such spectrophotometer uses diffusion of standard solution of 200 ng/ml 8-iso-PGF2α or 8-iso-PGF2α-d4 to optimize the mode for multiple reaction monitoring (MRM).
All rats were subjected to GSP and GEC tests.

The subject of data set [4] is 129/sv mice. In words: Mouse study of INH/RIF with oral Kaempferol, Mannitol, Saccharin, Sucralose, Dicalcium phosphate or Crospovidone. Format: in vivo. Conditions: 3 weeks, in words. The source says:
Animals were randomized into one of thirteen groups, each involving three treatments. […].
All mice were subjected to GSP test.

Data set [5] has as its target T2, human liver microsomal cytochrome P450 2E1 (CYP2E1) (Homo sapiens, UniProt P05181). In words: Human liver microsomal CYP2E1, chlorzoxazone 6-hydroxylation.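 Also: chlorzoxazone added as substrate, 6-hydroxychlorzoxazone formation quantified by LC/MS/MS after 30 min at 37 °C with NADP+ regenerating system, compared against solvent control without test sample.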
Experimental: as §2, §3, §4, §5
Data set [6] has as its target T2, human liver microsomal cytochrome P450 2E1 (CYP2E1).
Experimental: as §2, §3, §4, §5
For a further data set, the system named is amidase. In words: Mouse liver microsomal amidase, isoniazid to isonicotinic acid. Format: biochemical.
Data set [7] concerns 129/sv mice. In words: Mouse study of INH/RIF/PZA with oral Mannitol (GSP). Format: in vivo. The note with it: in words.
Experimental: Mice were anesthetized with ether at the dose of 50 mg/kg and galactose was retro-orbitally injected and blood samples were collected 60 min after injection through tail vein.
Animals were randomized into one of three groups, each involving four treatments. […] The second treatment involved injections of 50 mg/kg INH or INH vehicle (VEH1, normal saline). […] The third treatment involved injections of RIF (100 mg/kg) or RIF vehicle (VEH2, saline). […] The fourth treatment involved injections of PZA (250 mg/kg) or PZA vehicle (VEH3, saline).
In data set [8] the test system is Male SD (Sprague-Dawley) rats. In words: Rat study of PZA combined with BNPP (AST, ALT, histology, GSP). The format is in vivo. As for the experimental part:
The body weight of the rats was monitored throughout the experiment. Rats were anesthetized with sodium pentobarbital intraperitoneally (i.p.) at the dose of 50 mg/kg and galactose was injected intravenously through a polyethylene catheter positioned in internal jugular vein. The catheter was positioned by cut-down technique and its end was embedded under the skin behind the neck. After the surgery, the rats were fasted overnight during the recovery period (about 16 hours) with unrestricted water access.
Animals were randomized into one of five groups, each involving three treatments. The first treatment involved either a BNPP injection of 50 mg/kg or a BNPP vehicle (VEH1) injection (saline). […] The second treatment involved injections of either 500 mg/kg PZA or PZA vehicle (VEH2, saline). PZA was dissolved in saline and i.p. injected at a volume of […]. The first treatment (BNPP or VEH1) was administered 15 minutes before the […].
2. PZA group (PZA, n=10): continuously injections of PZA, VEH1 and VEH2 intraperitoneally once every day for 49 days;
3. BNPP-PZA group (BNPP-PZA, n=10): continuously injections of BNPP, PZA and VEH2 intraperitoneally once every day for 49 days;
as §1
All rats were subjected to GSP tests.

The target of data set [9] is cytochrome P450 2E1 (CYP2E1) (Homo sapiens, UniProt P05181). In words: CYP2E1 High Throughput Inhibitor Screening Kit, cDNA synthesized microsomal CYP2E1 (MFC to HFC). Conditions: Table 3; minimum tested concentration (mg/L) × volume of human liver and intestine (3L). The source says: CYP2E1 High Throughput Inhibitor Screening Kit (BD Bioscience, USA) was used to screen the cytochrome P450 (CYP2E1) inhibitors from 22 Chinese medicine guiding drugs and 10 excipients and microsomal cytochrome P450 (CYP2E1) was synthesized from cDNA (BD Bioscience, USA). The principle of the screening kit is to measure the percentage of CYP2E inhibition, after adding the test sample to substrate MFC (7-Methoxy-4-trifluoromethyl coumarin) and cytochrome P450 (CYP2E1), by measuring the synthesis of standard CYP2E1 metabolite (HFC, 7-Hydroxy-4-trifluoromethyl coumarin) and use control HFC as baseline.
a. 149 μl NADPH-Cofactor Mix and 1 μl 20 mM DDTC were added to the #1 well in a 96-well plate and mixed thoroughly,
b. Add 100 μl Cofactor/acetonitrile mix to #2 to #12 wells, and well #1 to #8 are positive control. Well #9 and 10 are control and well #11 and #12 are blank,
c. […] Preparation of Experimental Groups: a. […] Transfer 50 μl from well #1 and #2 and added to well #3 and mixed thoroughly (triplicate for each sample), 3. Initiation and Termination of the Reaction: a. The 96-well plate was incubated at 37° C. for […], b. 100 μl of Enzyme/Substrate Mix was added to every well and mixed thoroughly except the blank wells, c. The 96-well plate was incubated at 37° C. for 40 min, d. 75 μl Stop Solution was added to every well and mixed thoroughly, e. Immediately add 100 μl Enzyme/Substrate Mix to blank wells and mixed thoroughly, f. Measure with a Fluoroskan Ascent FL (Thermo Electron Corporation, Finland) with excitation at 405 nm and emission at 538 nm, 4. The fluorescence was transverse into CYP 2E1 metabolite standard (HFC) concentration (pmol) and the percentage (%) of CYP 2E1 inhibition was calculated using control as baseline by following equation: […]

The test system of data set [10] is 129/sv mice. In words: Mouse study of INH/RIF(/PZA) with i.p. Kaempferol or Quercetin.
Text: Animals were randomized into one of seven groups, each involving five treatments.
All mice were subjected to GSP tests.
Setting [11] is: i.p. daily 49 days, PZA 500 mg/kg, BNPP 50 mg/kg.
Setting [12] is: daily i.p. 3 weeks, INH/RIF 50/100 mg/kg, Kaempferol 3.78 mg/kg.

T2 sequence (P05181 whole entry): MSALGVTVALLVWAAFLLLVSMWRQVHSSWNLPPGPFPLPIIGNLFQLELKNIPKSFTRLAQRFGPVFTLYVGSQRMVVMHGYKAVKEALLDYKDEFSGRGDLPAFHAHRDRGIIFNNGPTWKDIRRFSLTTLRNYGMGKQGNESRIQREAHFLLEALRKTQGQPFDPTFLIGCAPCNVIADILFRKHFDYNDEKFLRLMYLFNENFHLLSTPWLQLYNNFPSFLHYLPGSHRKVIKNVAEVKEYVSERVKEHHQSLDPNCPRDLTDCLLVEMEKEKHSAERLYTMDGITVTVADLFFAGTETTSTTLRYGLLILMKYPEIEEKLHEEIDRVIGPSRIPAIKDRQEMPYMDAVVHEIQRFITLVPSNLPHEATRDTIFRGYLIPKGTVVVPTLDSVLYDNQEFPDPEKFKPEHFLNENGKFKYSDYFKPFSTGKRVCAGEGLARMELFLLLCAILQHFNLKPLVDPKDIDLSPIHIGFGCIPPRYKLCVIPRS
T1 sequence (P05181 whole entry): as above
Sequence of cytochrome P450 2E1 (CYP2E1) (P05181 whole entry): as above

A word on the inhibition: it is the drop in the measured response relative to a control, in per cent. In the case of `OC[C@@H](O)[C@@H](O)[C@H](O)[C@@H](O)CO` [Sorbitol], on CYP2E1 [1], the inhibition at 30 min, […] was determined as 4.4 ± 1.7%. For the same molecule, on CYP2E1 [2], the inhibition at 30 min, 0.08 % (w/v) is 5.6 ± 0.5% and the inhibition at 30 min, 0.167 % (w/v) stood at 16.1 ± 0.7%.

For the molecule `NNC(=O)c1ccncc1` [INH, isoniazid], the GEC values in data set [3] (21 days) amounted to 3.4±0.6 mg/min·kg. In addition, in data set [3] (i.p. once daily 21 days), the “plasma ALT activities” value came to 52±3 IU/L, the “plasma AST activities” value came out at 129±10 IU/L and the “plasma concentrations of 8-iso-PGF2α” value turned out to be 151 ± 26 pg/mL. The liver histopathology result in data set [3] (three weeks, H&E, EM, in words) is “showed hepatocellular damage”.

Consider `O=C1NS(=O)(=O)c2ccccc21` [Saccharin], for which the “GSP values over treatment time” value with 129/sv mice [4] is reported as “remained constant”. Also, on CYP2E1 [2], the inhibition at 30 min, 16.5 µM was determined as 29.4 ± 2.7%; the inhibition at 30 min, 33 µM stood at 51.2 ± 0.9%; the inhibition at 30 min, 66 µM was 78.5 ± 2.1%. Moreover, in data set [5] (Table 7), the “Minimum Effective Dose” value is reported as 10 mg.

With `CCCCCCCCCCCCCCCCCC(=O)OCC(O)CO` (centres unmarked) [Glycerrin monostearate], the inhibition in [6] was 5.8 ± 1.7%. The “Inhibition of CYP 2E1” value in data set [5] (0.08% (w/v)) turned out to be 7.4 ± 2.9%; in [5] (0.167% (w/v)), 6.9 ± 3.8%.

Turning to `OCc1ccccc1` [Benzyl alcohol], on CYP2E1 [1], the inhibition at 30 min, […] was 7.7 ± 2.6%. In addition, on CYP2E1 [2], the inhibition at 30 min, 0.08 % (w/v) turned out to be 6.7 ± 1% and the inhibition at 30 min, 0.167 % (w/v) was -10.3 ± 6.3%.

Take `OC[C@@H](O)[C@@H](O)[C@H](O)[C@H](O)CO` [Mannitol]: the Amidase inhibition came out at 58.3 ± 4.3% in the data set with amidase (0.0005%), 52.8 ± 7.6% with amidase (0.005%) and 1.9 ± 6.0% with amidase (0.05%). For the same molecule, the “GSP values over treatment time” value in the data set on 129/sv mice [4] was “remained constant”; with 129/sv mice [7], “reamined constant”. Also, on CYP2E1 [2], the inhibition at 30 min, 16.5 µM was determined as 44.8 ± 1.8%. Besides, on CYP2E1 [2], the inhibition at 30 min, 33 µM was determined as 51.2 ± 2.1%. In addition, on CYP2E1 [2], the inhibition at 30 min, 66 µM stood at 54.5 ± 4.2%. For the same molecule, the “Minimum Effective Dose” value in data set [5] (Table 7) is on record as 10 mg.

Consider Sodium starch glycolate, for which the inhibition in data set [6] was determined as 34.7 ± 1.3%.

Turning to Tween 80, in [6], the inhibition amounted to 23.1 ± 3%.

Take `NC(=O)c1cnccn1` [PZA, pyrazinamide]: in [8] (setting [11]), the “plasma ALT activities” value is listed as 91±11 IU/L and the “plasma AST activities” value was 179±10 IU/L. The liver histopathology result in data set [8] (seven weeks, in words) is “showed hepatocellular damage”.

Turning to `OC[C@H]1O[C@H](O[C@]2(CCl)O[C@H](CCl)[C@@H](O)[C@@H]2O)[C@H](O)[C@@H](O)[C@H]1Cl` [Sucralose], the “GSP values over treatment time” value in the data set with 129/sv mice [4] is “remained constant”. Further, at CYP2E1 [2], the inhibition at 30 min, 16.5 µM is 37.1 ± 2.8%; the inhibition at 30 min, 33 µM turned out to be 45.8 ± 4%; the inhibition at 30 min, 66 µM was determined as 55.8 ± 2%. Also, the “Minimum Effective Dose” value in data set [5] (Table 7) is 22 mg.

Take `O=c1c(O)c(-c2ccc(O)cc2)oc2cc(O)cc(O)c12` [Kaempferol]: in [9], the “Minimum Effective Dose” value is recorded as 16 mg. The “GSP values over treatment time” value with 129/sv mice [4] is reported as “remained constant”. The “Minimum Effective Dose” value in [5] (Table 6, minimum tested concentration (mg/L) × volume of human liver and intestine (3 L)) is on record as 16 mg. Moreover, the liver function tests entry in the data set on 129/sv mice [10] (Kaempferol 1.89 mg/kg with INH/RIF, in words) is “no obvious reduction”. In the data set with 129/sv mice [10] (setting [12]), this molecule had a GOT of 89±19 U/L and a GPT of 48±21 U/L.

Source of the values: US8969312B2, “Low side effect pharmaceutical composition containing antituberculosis drugs” (priority 2011, dated 2015).
